# T1: AtGTR1 (Arabidopsis thaliana, UniProt Q944G5)
# T1 construct: A library of Arabidopsis transporters available as full length cDNAs from the RIKEN bioresource center; expressed in transfected cells; host or cells: Xenopus oocytes injected with in vitro transcribed cRNA
# T1 sequence (Q944G5 31-636 limits assumed): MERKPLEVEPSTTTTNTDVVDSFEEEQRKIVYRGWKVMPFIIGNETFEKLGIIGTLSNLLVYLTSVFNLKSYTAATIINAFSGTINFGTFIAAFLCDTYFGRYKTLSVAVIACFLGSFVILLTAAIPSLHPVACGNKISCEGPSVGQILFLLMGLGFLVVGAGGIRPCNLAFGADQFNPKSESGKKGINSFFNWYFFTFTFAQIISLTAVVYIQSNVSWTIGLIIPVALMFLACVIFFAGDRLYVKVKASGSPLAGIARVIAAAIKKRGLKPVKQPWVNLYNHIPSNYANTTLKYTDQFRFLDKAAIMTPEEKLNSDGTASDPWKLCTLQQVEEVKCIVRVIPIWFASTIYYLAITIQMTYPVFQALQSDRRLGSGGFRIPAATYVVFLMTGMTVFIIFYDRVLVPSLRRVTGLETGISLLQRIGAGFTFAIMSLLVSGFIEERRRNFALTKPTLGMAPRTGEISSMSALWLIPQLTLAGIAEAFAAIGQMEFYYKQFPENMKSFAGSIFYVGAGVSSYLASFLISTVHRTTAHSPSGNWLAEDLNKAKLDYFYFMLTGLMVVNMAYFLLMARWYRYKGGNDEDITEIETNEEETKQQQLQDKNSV
# T2: AtGTR2 (Arabidopsis thaliana, UniProt Q9LV10)
# T2 construct: expressed in transfected cells; host or cells: Xenopus oocytes injected with in vitro transcribed cRNA (vector pNB1u)
# T2 sequence (Q9LV10 1-616): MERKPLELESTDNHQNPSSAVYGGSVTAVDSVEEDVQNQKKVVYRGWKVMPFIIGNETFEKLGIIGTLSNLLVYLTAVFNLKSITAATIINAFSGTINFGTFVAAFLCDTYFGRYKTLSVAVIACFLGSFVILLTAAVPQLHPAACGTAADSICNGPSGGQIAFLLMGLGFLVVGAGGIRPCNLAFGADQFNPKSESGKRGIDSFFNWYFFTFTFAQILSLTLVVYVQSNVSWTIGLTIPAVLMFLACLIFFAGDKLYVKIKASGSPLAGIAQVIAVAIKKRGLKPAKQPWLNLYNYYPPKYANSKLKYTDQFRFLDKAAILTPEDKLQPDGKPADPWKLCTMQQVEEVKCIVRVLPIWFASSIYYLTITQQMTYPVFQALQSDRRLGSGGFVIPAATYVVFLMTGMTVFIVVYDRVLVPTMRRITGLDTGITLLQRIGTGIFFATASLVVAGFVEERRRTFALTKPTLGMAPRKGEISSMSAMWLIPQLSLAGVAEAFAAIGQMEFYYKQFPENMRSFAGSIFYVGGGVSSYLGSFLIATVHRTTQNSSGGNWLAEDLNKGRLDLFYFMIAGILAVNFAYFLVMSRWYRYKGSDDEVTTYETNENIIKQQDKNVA
# B1: AtGTR5: Arabidopsis GTR protein, SEQ ID NO: 10 (protein, listed as Arabidopsis thaliana)
# chain: MVLEDRKDGSSLPGRSGSFSKSSPSELDVVDPYKRISSPGSILDAEKVEKKPGGWRAVSFILGNETLERLGSIGLLANFMVYLTKVFHLEQVDAANVINIWSGFTNLTPLVGAYISDTYVGRFKTIAFASFATLLGLITITLTASFPQLHPASCNSQDPLSCGGPNKLQIGVLLLGLCFLSVGSGGIRPCSIPFGVDQFDQRTEEGVKGVASFFNWYYMTFTVVLIITQTVVVYIQDQVSWIIGFSIPTGLMALAVVMFFAGMKRYVYVKPEGSIFSGIAQVIVAARKKRKLKLPAEDDGTVTYYDPAIKSSVLSKLHRSNQFRCLDKAAVVIEGDLTPEGPPADKWRLCSVQEVEEVKCLIRIVPIWSAGIISLAAMTTQGTFTVSQALKMDRNLGPKFEIPAGSLSVISLLTIGIFLPFYDRVFVPFMRRITGHKSGITLLQRIGTGIVFAIFSMIVAGIVERMRRIRSINAGDPTGMTPMSVFWLSPQLILMGLCEAFNIIGQIEFFNSQFPEHMRSIANSLFSLSFAGSSYLSSFLVTVVHKFSGGHDRPDWLNKNLNAGKLDYFYYLIAVLGVVNLVYFWYCARGYRYKVGLPIEDFEEDKSSDDVEMTSKKSMK
# B2: AtGTR4: Arabidopsis GTR protein, SEQ ID NO: 8 (protein, listed as Arabidopsis thaliana)
# chain: MDNEKGTSSSDLTTRQRKPLGWKAMPYIIGNETLERLATFGLMANFMVYMVREYHMDQVQAVTLINTWSALTNFAPIIGAFISDSYTGKFNTIVFGSIAELLGMLVLTFTSLVPNLRPPPCTADQITGQCIPYSYSQLYVLLSGLFLLSVGTGGIRSCSVPFSLDQFDDSTEEGREGSRSFFSWYYTTHTIVQLVSMTLVLYVQNNISWGIGFAIPTVLNFFALLLLFVGTRYYVFVKPEGSVFSGVFKVLVAAYKKRKARFTSGIDYHQPLLETDLQSNKLVLTDQFRFLNKAVIVMNNDEAGNEEWRTCTVRQIEDIKSIISIIPIFASSIIGFLAMNQQQTFTVSQALKMDLQFPGTSYLIPPASITVISLLNIGIWLPFYETVLVRHIENITKQNGGISLLQKVGIGNIFSISTMLISGIVERKRRDLSLNGVKMSVFWLTPQQVLMGFYQVFTIVGLTEFFNKQVPINMRSIGNSLLYLGLSLASYLSSAMVSIVHSVTARGGQSWLTDDIDKSKLDCFYYFIAALSTLNFIFFFWCARRYRYRNYSNEQ
# Legend:
# Format in all cases: cell-based
# AtGTR1 [1] = biological target: T1, AtGTR1; assay: Substrate-induced currents in voltage-clamped Xenopus oocytes expressing AtGTR1; settings: 1 mM NO3−, AtGTR1
# AtGTR1 [2] = biological target: T1, AtGTR1; assay: Uptake of C14-labeled pOHBG in AtGTR1 expressing oocytes in presence of excess competitor; settings: 50× excess unlabeled competitor, AtGTR1, pH 5
# Experimental: (§1) FIG. 3: Biochemical analysis of AtGTR1 and 2 mediated GSL transport in Xenopus oocytes. A and B, pH dependence of AtGTR-mediated GSL transport. A, AtGTR2 mediated 4-MTB uptake measured by LC-MS analysis of oocyte extracts, n=3 oocytes. B, AtGTR1 currents induced by 1 mM 4-MTB were measured at different membrane potentials at pH 5 ([…]), pH 6 (♦), and pH 7 (▴). Currents were normalized to the current induced at pH 5 at −60 mV, error bars are SD, n=4 oocytes. C and D, kinetic analysis of AtGTR-mediated glucosinolate transport. […]
# (§2) The substrate specificity investigations were extended to include substrates previously identified for the NRT/PTR transporter family namely di- and tripeptides and nitrate. […] However, perfusing with 1 mM NO3^− did result in currents but these amounted only to 1/10th of currents measured when perfusing with 100 μM 4-MTB (FIG. 3F). […]
# (§3) For assays with radiolabeled substrates, single oocytes were ruptured in 100 μl 10% SDS in 4 ml scintillation vials by shaking for 20-30 minutes. 2.5 ml EcoScint™ scintillation fluid (National Diagnostics) was added, and imported compounds quantified by scintillation counting. For assays with unlabeled substrates, oocyte extracts were analysed by LC-MS. Oocytes were analyzed in batches of 5 oocytes per repetition. […]
# AtGTR2 = biological target: T2, AtGTR2; assay: Uptake of C14-labeled pOHBG in AtGTR2 expressing oocytes in presence of excess competitor; settings: 50× excess unlabeled competitor, AtGTR2, pH 5
# Experimental: as §1, §2, §3
# Xenopus oocytes = assay: 4-MTB uptake in Xenopus oocytes expressing Arabidopsis GTR and other NRT/PTR proteins (LC-MS); settings: pH 5, 1 mM 4-MTB
Molecule,currents as fraction of currents with 100 μM 4-MTB (AtGTR1 [1]),effect on uptake of 40 μM C14-labeled pOHBG (AtGTR1 [2]),effect on uptake of 40 μM C14-labeled pOHBG (AtGTR2),4-MTB uptake activity compared to AtGTR1 (Xenopus oocytes) [%]
"O=[N+]([O-])O [NO3^−, nitrate]",1/10,did not have significant inhibitory effects,did not have significant inhibitory effects,
B1,,,,10
B2,,,,10

# From patent US20140137294A1, “GLUCOSINOLATE TRANSPORTER PROTEIN AND USES THEREOF” (UNIVERSITY OF COPENHAGEN, priority 2010, published 2014)
